# Reference: patent publication US12428402B2, “Resmetirom crystal, preparation method for same, and uses thereof” (CRYSTAL PHARMACEUTICAL (SUZHOU) CO., LTD., priority 2019, dated 2025)
# Several values for one entry are separate records, joined by “and”; a condition that tells them apart may be missing. Equal values may be shown once. Entries after “also recorded” stand apart in the source; their conditions may differ.
# Tests used:
# Assay type in all cases: physicochemical
# [1] = Kinetic solubility in SGF; conditions: for 1 hour Concentration: equilibrated 1 h
# Procedure: When solubility test is used to predict the in vivo performance of a drug, it is critical to simulate in vivo conditions as closely as possible. SGF can be used to simulate the condition in vivo and predict the effects of eating, thus solubility in this medium is closer to that in vivo.
# Approximately 5-20 mg of Form CSIV and 5-20 mg Form CSV of the present disclosure were suspended into 2.0 mL of SGF to get suspensions. After equilibrated for 1 h and 24 h, concentrations (μg/mL) of these solutions were measured by UPLC.
# [2] = Physical and chemical stability on storage (XRPD, HPLC)
# Procedure: A certain amount of Form CSIV of the present disclosure was sealed up and stored under different conditions of 25° C./60% RH, 40° C./75% RH, and 60° C./75% RH. Crystalline form and chemical purity were checked by XRPD and HPLC, respectively.
# A certain amount of Form CSV of the present disclosure was stored under different conditions of 40° C./75% RH and 60° C./75% RH in open and sealed dishes. Crystalline form and chemical purity were checked by XRPD and HPLC, respectively.
# [3] = Hygroscicity by dynamic vapor sorption (DVS); conditions: for hygroscopicity class / weight gain: 25° C./80% RH; for hygroscopicity class: Chinese Pharmacopoeia definition; for weight gain: DVS; for crystalline state before and after DVS: cycle of 0-95% RH
# Procedure: Dynamic Vapor Sorption (DVS) was measured via an SMS (Surface Measurement Systems Ltd.) intrinsic DVS instrument. Typical Parameters for DVS test are as follows: • Temperature: 25° C. • Gas and flow rate: N2, 200 mL/min • RH range: 0% RH to 95% RH
# Dynamic vapor sorption (DVS) analyzer was applied to test hygroscopicity of Form CSIV and Form CSV with certain amount of samples. The weight gains at each relative humidity were recorded in a cycle of 0-95% RH. […] The weight gain of Form CSV under 25° C./80% RH is 0.13%. […] The DVS curve of Form CSIV and Form CSV are shown in FIG. 9 and FIG. 10, respectively.
# Description and definition of hygroscopicity (general notice 9103 drug hygroscopicity test guidelines in 2020 edition of Chinese Pharmacopoeia, test at 25° C.±1° C., 80% RH±2% RH. The definition of hygroscopicity in the 9th European Pharmacopoeia 5.11 is consistent with the Chinese Pharmacopoeia). • deliquescent: Sufficient water is absorbed to form a solution; • very hygroscopic: Increase in mass is equal to or greater than 15%; • hygroscopic: Increase in mass is less than 15% and equal to or greater than 2%; • slightly hygroscopic: Increase in mass is less than 2% and equal to or greater than 0.2%. • non hygroscopic or almost non hygroscopic: Increase in mass is less than 0.2%.
# [4] = Compressibility (manual tablet press, tensile strength); conditions: for Diameter / Hardness / Thickness: 80 mg, φ6 mm round tooling, 10 kN, 24 h at room temperature; for Diameter / Hardness / Thickness / Tensile strength: tablets 1 and 2; for Average tensile strength / Tensile strength: T=2H/πDL
# Procedure: ENERPAC manual tablet press was used for compression. 80 mg of Form CSIV and 80 mg of Form I were weighed and added into the dies of a φ6 mm round tooling, compressed at 10 kN manually, then stored at room temperature for 24 h. Diameter (D) and thickness (L) were tested with caliper. When elastic recovery is complete, hardness (H) was tested with an intelligent tablet hardness tester. Tensile strength of the powder was calculated with the following formula: T=2H/πDL. Under a certain force, the greater the tensile strength, the better the compressibility.
# [5] = Physical stability upon grinding (XRPD); conditions: ground manually for 5 minutes in a mortar
# Procedure: Form CSV and Form I were grounded manually for 5 minutes in a mortar. Crystalline forms before and after grinding were checked by XRPD. […] Compared with Form I, Form CSV has better physical stability upon grinding.
# [6] = 40° C./75% RH (open), one month
# [7] = 40° C./75% RH (sealed), one month
# [8] = 60° C./75% RH (sealed), one week
1 hour Concentration ([1]; UPLC) [µg/mL],solubility relative to that of Form I ([1]; equilibrated 1 hour) [times],solubility relative to that of Form I ([1]; equilibrated 24 hours) [times],Crystalline form ([2]; Initial),weight gain [3] [%],crystalline state before and after DVS [3],Diameter [4],Hardness [4],Thickness [4],Average tensile strength ([4]; compressed at 10 kN) [MPa],Tensile strength ([4]; compressed at 10 kN),SMILES,hygroscopicity class [3],crystalline state after grinding [5],further results
11.7,10.6,5.0,Form CSIV,0.58,remains unchanged before and after DVS,6.03 mm and 6.04 mm,28.3 kg and 27.7 kg,2.12 mm,1.40,1.41 MPa and 1.38 MPa,"CC(C)c1cc(Oc2c(Cl)cc(-n3nc(C#N)c(=O)[nH]c3=O)cc2Cl)n[nH]c1=O [Form CSIV, 2-(3,5-dichloro-4-((5-isopropyl-6-oxo-1,6-dihydropyridazin-3-yl)oxy)phenyl)-3,5-dioxo-2,3,4,5-tetrahydro-1,2,4-triazine-6-carbonitrile]",slightly hygroscopic (Increase in mass is less than 2% and equal to or greater than 0.2%),,"solubility thermodynamic at 24 h ([1]; simulated gastric fluid, thermodynamic from solid, equilibrated 24 h, UPLC, read-out: 24 hours Concentration): 5.5 µg/mL; time for which the form is stable / crystalline state doesn't change ([2]; 25° C./60% RH sealed): at least 6 months; Crystalline form ([2]; 25° C./60% RH sealed, 6 months): Form CSIV; time for which the form is stable / crystalline state doesn't change ([2]; 40° C./75% RH sealed): at least 6 months; Crystalline form ([2]; 40° C./75% RH sealed, 6 months): Form CSIV; Purity ([2]; 40° C./75% RH sealed, 6 months): 99.76%; time for which crystalline state doesn't change ([2]; 60° C./75% RH sealed): at least 1 month; time for which the form is stable ([2]; 60° C./75% RH sealed, in words): at least one month; Crystalline form ([2]; 60° C./75% RH sealed, one month): Form CSIV; Purity ([2]; Initial): 99.80%; crystalline state before and after tableting ([4]; compressed at 10 kN, XRPD): remains unchanged before and after tableting"
7.8,7.1,8.7,Form CSV,0.13,remains unchanged before and after DVS,,,,,,"CC(C)c1cc(Oc2c(Cl)cc(-n3nc(C#N)c(=O)[nH]c3=O)cc2Cl)n[nH]c1=O [Form CSV, 2-(3,5-dichloro-4-((5-isopropyl-6-oxo-1,6-dihydropyridazin-3-yl)oxy)phenyl)-3,5-dioxo-2,3,4,5-tetrahydro-1,2,4-triazine-6-carbonitrile]",non hygroscopic or almost non-hygroscopic,does not change before and after grinding; also recorded: doesn't change after grinding,"24 hours Concentration ([1]; equilibrated 24 h, UPLC): 9.6 µg/mL; Crystalline form [2, 6]: Form CSV; Purity [2, 6]: 99.81%; Crystalline form [2, 7]: Form CSV; Purity [2, 7]: 99.85%; chemical purity during storage ([2]; 40° C./75% RH one month, 60° C./75% RH one week): above 99.8%; time for which the form is stable ([2]; 40° C./75% RH open and sealed dishes, in words): at least one months; time for which crystalline state doesn't change ([2]; 40° C./75% RH sealed, in words): at least one month; Crystalline form ([2]; 60° C./75% RH (open), one week): Form CSV; Purity ([2]; 60° C./75% RH (open), one week): 99.86%; Crystalline form [2, 8]: Form CSV; Purity [2, 8]: 99.87%; time for which the form is stable / crystalline form doesn't change ([2]; 60° C./75% RH open and sealed, in words): at least one week"
,,,,,,6.01 mm and 6.11 mm,8.7 kg and 7.9 kg,2.11 mm and 2.00 mm,0.43,0.44 MPa and 0.41 MPa,"CC(C)c1cc(Oc2c(Cl)cc(-n3nc(C#N)c(=O)[nH]c3=O)cc2Cl)n[nH]c1=O [Form I, 2-(3,5-dichloro-4-((5-isopropyl-6-oxo-1,6-dihydropyridazin-3-yl)oxy)phenyl)-3,5-dioxo-2,3,4,5-tetrahydro-1,2,4-triazine-6-carbonitrile, reference compound]",,almost transform into amorphous after grinding; also recorded: transforms into amorphous after grinding,
